Reference: ChEMBL document CHEMBL4680171, “Oxadiazolylthiazoles as novel and selective antifungal agents” (Eur J Med Chem, 2020)
Converted amounts (≈) assume the structure as drawn.

Experiments:
Assay type in all cases: functional
Staphylococcus aureus = assay: Antibacterial activity against methicillin resistant Staphylococcus aureus subsp. aureus USA300 assessed as reduction in bacterial growth by CLSI based broth microdilution method
Escherichia coli [1] = assay: Antibacterial activity against Escherichia coli JW55031 harboring tolC mutation assessed as reduction in bacterial growth by CLSI based broth microdilution method
Escherichia coli [2] = assay: Antibacterial activity against Escherichia coli BW25113 assessed as reduction in bacterial growth by CLSI based broth microdilution method
Clostridioides difficile = assay: Antibacterial activity against Clostridium difficile BAA1870 assessed as reduction in bacterial growth by CLSI based broth microdilution method
Candida albicans = assay: Antifungal activity against Candida albicans SS5314 assessed as reduction in fungal growth by CLSI based broth microdilution method

SMILES	MIC (Staphylococcus aureus) [µg/mL]	MIC (Escherichia coli [1]) [µg/mL]	MIC (Escherichia coli [2]) [µg/mL]	MIC (Clostridioides difficile) [µg/mL]	MIC (Candida albicans) [µg/mL]
Cc1nc(-c2ccc(C(C)(C)C)cc2)sc1-c1nnc(NCCO)o1	> 64	> 64	> 64	32 (≈ 89.3 µM)	> 64
Cc1nc(-c2ccc(C(C)(C)C)cc2)sc1-c1nnc(N2CC[C@@H](N(C)C)C2)o1	> 64	> 64	> 64	> 64	> 64
Cc1nc(-c2ccc(C(C)(C)C)cc2)sc1-c1nnc(NCCN(C)C)o1	64 (≈ 166 µM)	32 (≈ 83 µM)	> 64	16 (≈ 41.5 µM)	32 (≈ 83 µM)
Cc1nc(-c2ccc(C(C)(C)C)cc2)sc1-c1nnc(N2CC[C@H](N(C)C)C2)o1	> 64	> 64	> 64	32 (≈ 77.8 µM)	> 64
Cc1nc(-c2ccc(C(C)(C)C)cc2)sc1-c1nnc(NCC(=N)N)o1	> 64	> 64	> 64	64 (≈ 173 µM)	> 64
Cc1nc(-c2ccc(C(C)(C)C)cc2)sc1-c1nnc(NC(CO)CO)o1	> 64	> 64	> 64	> 64	> 64
Cc1nc(-c2ccc(C(C)(C)C)cc2)sc1-c1nnc(NC2CCNC2)o1 (stereo not given)	32 (≈ 83.4 µM)	32 (≈ 83.4 µM)	> 64	16 (≈ 41.7 µM)	> 64
Cc1nc(-c2ccc(C(C)(C)C)cc2)sc1-c1nnc(NC[C@H](O)CO)o1	> 64	32 (≈ 82.4 µM)	> 64	16 (≈ 41.2 µM)	> 64
Cc1nc(-c2ccc(C(C)(C)C)cc2)sc1-c1nnc(N2CCC[C@H]2CO)o1	> 64	> 64	> 64	16 (≈ 40.1 µM)	> 64
Cc1nc(-c2ccc(C(C)(C)C)cc2)sc1-c1nnc(NCCN)o1	8 (≈ 22.4 µM)	> 64	> 64	> 64	32 (≈ 89.5 µM)
Cc1nc(-c2ccc(C(C)(C)C)cc2)sc1-c1nnc(N[C@H]2CC[C@H](N)CC2)o1	32 (≈ 77.8 µM)	32 (≈ 77.8 µM)	> 64	8 (≈ 19.4 µM)	8 (≈ 19.4 µM)
Cc1nc(-c2ccc(C(C)(C)C)cc2)sc1-c1nnc(NCCCO)o1	> 64	> 64	> 64	32 (≈ 85.9 µM)	> 64
